From ChEMBL document CHEMBL4184252, “Synthesis of novel multivalent fluorescent inhibitors with high affinity to prostate cancer and their biological evaluation” (Bioorg Med Chem Lett, 2018) come the findings set out here.

SMILES strings stand for the structures. pKi: −log10 of the molar value.

The nature of data set [1]: Drug distribution in heart of BALB/c nude mouse xenografted with human 22Rv1 cells at 10 nmol, iv measured 1 to 24 hrs after post dose by fluorescence imaging method. The class given is ADME, organism-based. To be noted: in vivo.
The target of data set [2] is Glutamate carboxypeptidase 2 (Homo sapiens, UniProt Q04609). Put plainly: Inhibition of PSMA in human LNCaP cell lysates incubated for 2 hrs in presence of N-acetylaspartylglutamate by Amplex red glutamic acid/glutamate oxidase assay.
Sequence of Glutamate carboxypeptidase 2 (Q04609 whole entry): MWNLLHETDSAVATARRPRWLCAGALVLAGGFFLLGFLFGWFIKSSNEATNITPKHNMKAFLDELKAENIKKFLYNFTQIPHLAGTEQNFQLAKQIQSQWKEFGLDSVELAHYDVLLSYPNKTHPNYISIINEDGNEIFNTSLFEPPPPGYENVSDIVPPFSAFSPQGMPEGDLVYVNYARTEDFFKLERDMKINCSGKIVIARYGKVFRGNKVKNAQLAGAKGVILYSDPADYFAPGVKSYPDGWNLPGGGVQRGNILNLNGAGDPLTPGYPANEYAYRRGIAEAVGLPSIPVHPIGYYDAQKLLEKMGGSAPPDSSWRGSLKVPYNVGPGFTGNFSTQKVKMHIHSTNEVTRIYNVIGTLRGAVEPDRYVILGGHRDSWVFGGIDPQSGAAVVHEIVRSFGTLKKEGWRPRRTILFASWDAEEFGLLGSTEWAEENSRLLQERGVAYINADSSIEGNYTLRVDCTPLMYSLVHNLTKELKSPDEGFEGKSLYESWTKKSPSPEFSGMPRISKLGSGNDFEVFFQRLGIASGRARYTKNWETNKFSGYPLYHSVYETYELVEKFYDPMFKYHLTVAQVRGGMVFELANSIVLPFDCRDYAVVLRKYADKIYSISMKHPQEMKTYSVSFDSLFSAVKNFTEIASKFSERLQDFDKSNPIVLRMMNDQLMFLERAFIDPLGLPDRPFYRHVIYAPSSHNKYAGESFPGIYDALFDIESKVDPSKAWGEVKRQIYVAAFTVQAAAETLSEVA
The nature of data set [3]: Drug distribution in lung of BALB/c nude mouse xenografted with human 22Rv1 cells at 10 nmol, iv measured 1 to 24 hrs after post dose by fluorescence imaging method. To be noted: in vivo. The class given is ADME, organism-based.
Data set [4] can be described thus: Drug distribution in spleen of BALB/c nude mouse xenografted with human 22Rv1 cells at 10 nmol, iv measured 1 to 24 hrs after post dose by fluorescence imaging method. The class given is ADME, organism-based. To be noted: in vivo. On the technique in general: In xenograft studies the graft and the host belong to different species.
Data set [5] is described as follows: Drug distribution in muscle of BALB/c nude mouse xenografted with human 22Rv1 cells at 10 nmol, iv measured 1 to 24 hrs after post dose by fluorescence imaging method. Type of data set: ADME, organism-based, Muscle tissue. To be noted: in vivo.
Data set [6] in a line: Drug distribution in tumor of BALB/c nude mouse xenografted with human 22Rv1 cells at 10 nmol, iv measured 1 to 24 hrs after post dose by fluorescence imaging method. The class given is ADME, organism-based, Neoplasm. To be noted: in vivo.
A short description of data set [7]: Drug distribution in liver of BALB/c nude mouse xenografted with human 22Rv1 cells at 10 nmol, iv measured 1 to 24 hrs after post dose by fluorescence imaging method. The class given is ADME, organism-based. To be noted: in vivo.
The nature of data set [8]: Drug distribution in tumor of BALB/c nude mouse xenografted with human 22Rv1 cells at 10 nmol, iv measured 1 to 24 hrs after post dose co-treated with 1 umol DCIBZL by fluorescence imaging method. Type of data set: ADME, organism-based, Neoplasm. To be noted: in vivo.
Data set [9] in a line: Drug distribution in liver of BALB/c nude mouse xenografted with human 22Rv1 cells at 10 nmol, iv measured 1 to 24 hrs after post dose co-treated with 1 umol DCIBZL by fluorescence imaging method. Type of data set: ADME, organism-based. To be noted: in vivo.

In the case of `CCN1/C(=C/C=C/C=C/C2=[N+](CCCCCC(=O)NCCCC(=O)NCCCC[C@H](NC(=O)N[C@@H](CCC(=O)O)C(=O)O)C(=O)O)c3ccc4c(S(=O)(=O)[O-])cc(S(=O)(=O)O)cc4c3C2(C)C)C(C)(C)c2c1ccc1c(S(=O)(=O)O)cc(S(=O)(=O)O)cc21`, the Drug uptake result was “Not Active” in data set [1]; “Not Active” in data set [3]; “Not Active” in [4]; “Not Active” in data set [5]; “Active” in data set [6]; “Active” in [7]. Also, the Drug uptake result in data set [8] and in [9] was “Not Active” throughout. Besides, the pKi in data set [2] was 9.24.

In the case of `CCN1/C(=C/C=C/C=C/C2=[N+](CCCCCC(=O)NCCCN(CC(=O)Nc3ccc(C(=O)NCCCC[C@H](NC(=O)N[C@@H](CCC(=O)O)C(=O)O)C(=O)O)cc3)CC(=O)Nc3ccc(C(=O)NCCCC[C@H](NC(=O)N[C@@H](CCC(=O)O)C(=O)O)C(=O)O)cc3)c3ccc4c(S(=O)(=O)[O-])cc(S(=O)(=O)O)cc4c3C2(C)C)C(C)(C)c2c1ccc1c(S(=O)(=O)O)cc(S(=O)(=O)O)cc21`, the Drug uptake result in [1] is reported as “Not Active”; in data set [3], “Not Active”; in data set [4], “Not Active”; in [5], “Not Active”; in data set [6], “Active”; in data set [7], “Active”. Further, the negative-log Ki (pKi) in [2] is 9.42.

Take `CCN1/C(=C/C=C/C=C/C2=[N+](CCCCCC(=O)NCCCC(=O)N[C@@H](CCC(=O)NCCCC[C@H](NC(=O)N[C@@H](CCC(=O)O)C(=O)O)C(=O)O)C(=O)NCCCC[C@H](NC(=O)N[C@@H](CCC(=O)O)C(=O)O)C(=O)O)c3ccc4c(S(=O)(=O)[O-])cc(S(=O)(=O)O)cc4c3C2(C)C)C(C)(C)c2c1ccc1c(S(=O)(=O)O)cc(S(=O)(=O)O)cc21`: the Drug uptake entry in [1] is recorded as “Not Active”; in data set [3], “Not Active”; in [4] it was “Not Active”; in data set [5] it was “Not Active”; in data set [6], “Active”; in data set [7], “Not Active”. In addition, the Drug uptake entry in [8] and in [9] was “Not Active” throughout. Moreover, the pKi in data set [2] was 9.85.

For orientation: pKi means the Ki on a negative log10 scale, so that one unit is a factor of ten.
